# Results published in patent US20200017496A1 (priority 2017, published 2020).
# Where two headings read alike, the source gives them in different places.
# Tested on: Klebsiella pneumoniae (KPN) isolates
# Experiment: MIC of compounds alone and combined with antibacterials, broth microdilution (CLSI)
# Format: cell-based
# Conditions: for MIC: Klebsiella pneumoniae, read-out: MIC
# In short: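 Inoculum 5·10^5 CFU/mL (final), log phase, ca-MHB; 16-20 h, 35° C, ambient air. MIC = lowest conc. with no visible growth; ATB MIC read at each compound level.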
smiles,measurement,setting,value
"C=CC1=C(C(=O)O)N2C(=O)[C@@H](NC(=O)/C(=N\OCC(=O)O)c3csc(N)n3)[C@H]2SC1 [FIX, Cefixime]",MIC ATB in combination,,>128 µg/mL
same,MIC ATB in combination,"KPN 6299, AF1 @ 4 μg/mL",<=0.25 μg/mL
same,MIC ATB in combination,"KPN 6299, AF1 @ 8 μg/mL",<=0.25 μg/mL
same,MIC ATB in combination,"KPN 110376, AF1 @ 4 μg/mL",0.125 µg/mL
same,MIC ATB in combination,"KPN 110376, AF1 @ 8 μg/mL",0.125 µg/mL
same,MIC ATB in combination,"KPN 131119, AF1 @ 4 μg/mL",<=0.25 μg/mL
same,MIC ATB in combination,"KPN 131119, AF1 @ 8 μg/mL",<=0.25 μg/mL
same,MIC ATB in combination,"KPN 140513, AF1 @ 4 μg/mL",4 µg/mL
same,MIC ATB in combination,"KPN 140513, AF1 @ 8 μg/mL",0.5 µg/mL
same,MIC ATB in combination,"KPN 160143, AF1 @ 4 μg/mL",<=0.25 μg/mL
same,MIC ATB in combination,"KPN 160143, AF1 @ 8 μg/mL",<=0.25 μg/mL
same,MIC ATB in combination,"KPN 190128, AF1 @ 4 μg/mL",0.5 µg/mL
same,MIC ATB in combination,"KPN 190128, AF1 @ 8 μg/mL",<=0.25 μg/mL
same,MIC ATB in combination,"KPN 190270, AF1 @ 4 μg/mL",0.5 µg/mL
same,MIC ATB in combination,"KPN 190270, AF1 @ 8 μg/mL",<=0.25 μg/mL
same,MIC ATB in combination,"KPN 190425, AF1 @ 4 μg/mL",<=0.25 μg/mL
same,MIC ATB in combination,"KPN 190425, AF1 @ 8 μg/mL",<=0.25 μg/mL
same,MIC ATB in combination,"KPN 190551, AF1 @ 4 μg/mL",<=0.25 μg/mL
same,MIC ATB in combination,"KPN 190551, AF1 @ 8 μg/mL",<=0.25 μg/mL
same,MIC ATB in combination,"KPN 200047, AF1 @ 4 μg/mL",<=0.25 μg/mL
same,MIC ATB in combination,"KPN 200047, AF1 @ 8 μg/mL",<=0.25 μg/mL
same,MIC ATB in combination,"KPN 200327, AF1 @ 4 μg/mL",<=0.25 μg/mL
same,MIC ATB in combination,"KPN 200327, AF1 @ 8 μg/mL",<=0.25 μg/mL
same,MIC ATB in combination,"KPN 260251, AF1 @ 4 μg/mL",<=0.25 μg/mL
same,MIC ATB in combination,"KPN 260251, AF1 @ 8 μg/mL",0.5 µg/mL
same,MIC ATB in combination,"KPN 260252, AF1 @ 4 μg/mL",8 µg/mL
same,MIC ATB in combination,"KPN 260252, AF1 @ 8 μg/mL",4 µg/mL
same,MIC ATB in combination,"KPN 260376, AF1 @ 4 μg/mL",<=0.25 μg/mL
same,MIC ATB in combination,"KPN 260376, AF1 @ 8 μg/mL",<=0.25 μg/mL
same,MIC ATB in combination,"KPN 270077, AF1 @ 4 μg/mL",0.5 µg/mL
same,MIC ATB in combination,"KPN 270077, AF1 @ 8 μg/mL",<=0.25 μg/mL
same,MIC ATB in combination,"KPN 700603, AF1 @ 4 μg/mL",<=0.25 μg/mL
same,MIC ATB in combination,"KPN 700603, AF1 @ 8 μg/mL",<=0.25 μg/mL
same,MIC ATB in combination,"KPN ARA, AF1 @ 4 μg/mL",<=0.25 μg/mL
same,MIC ATB in combination,"KPN ARA, AF1 @ 8 μg/mL",<=0.25 μg/mL
same,MIC ATB in combination,"KPN BAA-1898, AF1 @ 4 μg/mL",<=0.25 μg/mL
same,MIC ATB in combination,"KPN BAA-1898, AF1 @ 8 μg/mL",<=0.25 μg/mL
same,MIC ATB in combination,"KPN LIB, AF1 @ 4 μg/mL",<=0.25 μg/mL
same,MIC ATB in combination,"KPN LIB, AF1 @ 8 μg/mL",<=0.25 μg/mL
same,MIC ATB in combination,"KPN UFR22_O, AF1 @ 4 μg/mL",<=0.25 μg/mL
same,MIC ATB in combination,"KPN UFR22_O, AF1 @ 8 μg/mL",<=0.25 μg/mL
same,MIC ATB in combination,"KPN UFR23, AF1 @ 4 μg/mL",<=0.25 μg/mL
same,MIC ATB in combination,"KPN UFR23, AF1 @ 8 μg/mL",<=0.25 μg/mL
same,MIC ATB in combination,"KPN UFR24, AF1 @ 4 μg/mL",0.5 µg/mL
same,MIC ATB in combination,"KPN UFR24, AF1 @ 8 μg/mL",0.5 µg/mL
same,MIC ATB in combination,"KPN UFR25, AF1 @ 4 μg/mL",<=0.25 μg/mL
same,MIC ATB in combination,"KPN UFR25, AF1 @ 8 μg/mL",<=0.25 μg/mL
same,MIC ATB in combination,"KPN UFR27, AF1 @ 4 μg/mL",16 µg/mL
same,MIC ATB in combination,"KPN UFR27, AF1 @ 8 μg/mL",2 µg/mL
same,MIC ATB in combination,"KPN UFR28, AF1 @ 4 μg/mL",<=0.25 μg/mL
same,MIC ATB in combination,"KPN UFR28, AF1 @ 8 μg/mL",<=0.25 μg/mL
same,MIC ATB in combination,"KPN UFR65, AF1 @ 4 μg/mL",<=0.25 μg/mL
same,MIC ATB in combination,"KPN UFR65, AF1 @ 8 μg/mL",<=0.25 μg/mL
same,MIC ATB in combination,"KPN UFR66, AF1 @ 4 μg/mL",1 µg/mL
same,MIC ATB in combination,"KPN UFR66, AF1 @ 8 μg/mL",0.25 µg/mL
same,MIC ATB in combination,"KPN UFR67, AF1 @ 4 μg/mL",2 µg/mL
same,MIC ATB in combination,"KPN UFR67, AF1 @ 8 μg/mL",0.5 µg/mL
same,MIC ATB in combination,"KPN UFR68, AF1 @ 4 μg/mL",1 µg/mL
same,MIC ATB in combination,"KPN UFR68, AF1 @ 8 μg/mL",0.25 µg/mL
same,MIC ATB in combination,"KPN UFR77, AF1 @ 4 μg/mL",16 µg/mL
same,MIC ATB in combination,"KPN UFR77, AF1 @ 8 μg/mL",8 µg/mL
same,MIC ATB in combination,"KPN UFR78, AF1 @ 4 μg/mL",128 µg/mL
same,MIC ATB in combination,"KPN UFR78, AF1 @ 8 μg/mL",32 µg/mL
same,MIC ATB in combination,"KPN UFR79, AF1 @ 4 μg/mL",16 µg/mL
same,MIC ATB in combination,"KPN UFR79, AF1 @ 8 μg/mL",4 µg/mL
same,MIC ATB in combination,"KPN UFR80, AF1 @ 4 μg/mL",<=0.25 μg/mL
same,MIC ATB in combination,"KPN UFR80, AF1 @ 8 μg/mL",<=0.25 μg/mL
same,MIC ATB in combination,"KPN UFR81, AF1 @ 4 μg/mL",16 µg/mL
same,MIC ATB in combination,"KPN UFR81, AF1 @ 8 μg/mL",2 µg/mL
same,MIC ATB in combination,"KPN UFR215, AF1 @ 4 μg/mL",<=0.25 μg/mL
same,MIC ATB in combination,"KPN UFR215, AF1 @ 8 μg/mL",<=0.25 μg/mL
same,MIC ATB in combination,"KPN UFR216, AF1 @ 4 μg/mL",<=0.25 μg/mL
same,MIC ATB in combination,"KPN UFR216, AF1 @ 8 μg/mL",<=0.25 μg/mL
same,MIC ATB in combination,"KPN UFR217, AF1 @ 4 μg/mL",<=0.25 μg/mL
same,MIC ATB in combination,"KPN UFR217, AF1 @ 8 μg/mL",<=0.25 μg/mL
same,MIC ATB in combination,"KPN UFR219, AF1 @ 4 μg/mL",<=0.25 μg/mL
same,MIC ATB in combination,"KPN UFR219, AF1 @ 8 μg/mL",<=0.25 μg/mL
same,MIC ATB in combination,"KPN UFR220, AF1 @ 4 μg/mL",4 µg/mL
same,MIC ATB in combination,"KPN UFR220, AF1 @ 8 μg/mL",2 µg/mL
same,MIC ATB in combination,"KPN UFR221, AF1 @ 4 μg/mL",2 µg/mL
same,MIC ATB in combination,"KPN UFR221, AF1 @ 8 μg/mL",<=0.25 μg/mL
same,MIC ATB in combination,"KPN UFR222, AF1 @ 4 μg/mL",32 µg/mL
same,MIC ATB in combination,"KPN UFR222, AF1 @ 8 μg/mL",16 µg/mL
same,MIC ATB in combination,"KPN UFR227O, AF1 @ 4 μg/mL",1 µg/mL
same,MIC ATB in combination,"KPN UFR227O, AF1 @ 8 μg/mL",0.5 µg/mL
same,MIC,"BAA1898, strain KPN BAA-1898 (TEM-1, SHV-11, SHV-12, KPC-2), ATB alone",> 128 µg/mL
same,MIC,"BAA1898, strain KPN BAA-1898 (TEM-1, SHV-11, SHV-12, KPC-2), CLA @ 4 μg/ml+ ATB",64 µg/mL
same,MIC,"KPN 110376, alone",> 128 µg/mL
same,MIC,"KPN 131119, alone",> 128 µg/mL
